Earlier results, collected in patent US5990112A, “Inhibitors of metalloproteases pharmaceutical compositions comprising same and methods of their use” (Affymax Technologies N.V., priority 1996, dated 1999).

Assays:
[1] = target: human rheumatoid synovial collagenase
[2] = target: rabbit bone proteoglycanase; conditions: Delaisse et al. 1985

CNC(=O)[C@H](Cc1ccc(OC)cc1)NC(=O)[C@H](CC(C)C)NC(CCNC(=O)OCc1ccccc1)C(=O)O (stereo partly drawn) [N-[3-(benzyloxy-carbonyl)amino-1-carboxy-n-propyl]-L-leucyl-O-methyl-L-tyrosine, N-methylamide]
IC50 [1]: < 8000 nM | IC50 [2]: 500 nM
